According to patent publication US20110152267A1, “Compositions and Methods for Treating Hyperproliferative Disorders” (Texas Tech University System, priority 2009, published 2011):

Assays:
Type in all cases: cell-based, human
[1] = system: OE-19 esophageal adenocarcinoma cell line; assay: DIMSCAN cytotoxicity, fenretinide + L-threo-sphinganines 3:1 (Example B19)
Protocol: (§1) Cytotoxicity Assay—Once again, cytotoxicity is determined using the DIMSCAN assay system (R. Proffitt et al., Cytometry 24, 204-213 (1996); T. Frgala et al., Mol Cancer Ther. 6:886-97, 2007). The system employs digital imaging microscopy to quantify viable cells, which selectively accumulate fluorescein diacetate to become brightly fluorescent. The system is capable of measuring cytotoxicity over a 4-5 log dynamic range by quenching the residual fluorescence of dead and dying cells with eosin Y and quantifying the total fluorescence of viable cells using digital thresholding. Measured fluorescence is directly proportionate to the number of viable cells. A comparison of the total fluorescence of a drug-treated cell population to the fluorescence of a similar number of untreated cells yields a survival fraction. In brief, 2000 to 10,000 cells/well (depending on size and growth rates) are replicate plated into 60 wells of a 96-well tissue culture plate in 0.1 mL of whole medium and allowed to attach overnight. Drug(s) are then added in 0.05 mL of whole medium to the final concentrations indicated. Drugs (fenretinide, and various chain length L-threo-sphinganines) were tested both as single agents and in a 3:1 ratio of fenretinide:sphinganine. C18-L-threo-sphinganine, or “safingol,” was also tested and results shown for reference. There are 12 wells treated per drug concentration. Twelve wells receive drug vehicle-only to the appropriate final concentration and serve as controls for the plate. Cells are incubated for 96 hours at 37° C. in ambient air with 5% CO2. Fluorescein diacetate is then added to each well in 0.05 mL media to a final concentration of 8 microgram/mL. Cells are incubated for a further 15 minutes at 37° C. and 0.03 mL of 0.5% eosin Y is added to each well. Total fluorescence of viable cells is then measured by digital imaging microscopy. Results were graphed as the ratio of the fluoresecence of drug-treated wells to non-drug treated control wells (i.e., Survival Fraction). All tests were performed at least twice. Representative results are shown.
(§2) The Combination Index (CI) is a term to describe mathematical modeling of the pharmacologic effects on cytotoxicity (cell death) of two drugs in combination based. Cytotoxic “synergy” is defined as a cell death affect which is greater than would be expected from a simple product of the single agent cytotoxicities alone (i.e. an “additive” effect). By Chou-Talalay analysis, a CI<0.9 on a Fraction Affected (“Fa”, i.e. fraction of cells killed) indicates synergy, with smaller numbers indicating greater synergy; a CI of 0.9-1.1 signifies an additive or near-additive effect; and a CI>1.1 means the drug combination is antagonistic.
Fenretinide and L-threo-sphinganines tested in human esophageal adenocarcinoma (esophagus cancer) cell lines, OE-19 and OE-33.

[2] = system: MDA-MB-231 breast adenocarcinoma cell line; assay: DIMSCAN cytotoxicity, fenretinide + L-threo-sphinganines 3:1 (Example B14); details: MDA-MB-231, 20% O2, 96 h
Protocol: as §1, §2
(§3) Fenretinide and L-threo-sphinganines tested in human breast adenocarcinoma (breast cancer) cell lines, MCF-7 and MDA-MB-231.

[3] = system: MCF-7 breast adenocarcinoma cell line; assay: as above; details: 96 h
Protocol: as §1, §2, §3

[4] = system: COG-LL-317 Acute Lymphoblastic Leukemia (ALL) cancer cell line; assay: DIMSCAN cytotoxicity dose-response with fenretinide (Examples A, FIGS. 5, 11, 17); details: 5% oxygen, at one or more doses, +96 hrs
Protocol: Cytotoxicity Assay: Cytotoxicity in cell lines was determined using a fluorescence-based assay employing digital imaging microscopy (DIMSCAN)(after Fragala, et al, Mol Cancer Ther, 6:886-897, 2007). DIMSCAN quantitates viable cells which selectively accumulate fluorescein diacetate and is capable of measuring cytotoxicity over a 4-5 log dynamic range by quantifying total fluorescence per well (which is proportional to viable, clonogenic cells) after eliminating background fluorescence using digital thresholding and eosin Y quenching. Briefly, cell lines were seeded into 96-well plates in 100 µL of complete culture medium (10-20% serum) per well. Cells were incubated overnight in 2%, 5% or 20% oxygen (room air) prior to addition of drugs in […] volumes of complete medium to various final drug concentrations in replicates of 12 wells per concentration. In assays employing D-threo-PPMP, PPMP was employed at a fixed, minimally-toxic, final concentration of 10 μM in each well. Control wells received ethanol (final concentration=0.12%-0.20%) in complete medium equivalent to the maximum final ethanol concentration of drug-treated wells. Plates were incubated at various oxygen concentrations to simulate physiological hypoxia (i.e., 2% oxygen=typical solid tumor oxygen levels; 5%=bone marrow oxygen levels for leukemias; 20% room air=supraphysiological oxygen for comparison with typical laboratory culture conditions). Plates were assayed at 3-4 days after initiating drug exposure depending on the growth properties of each cell line, to allow for maximum cell death and outgrowth of surviving cells. To measure cytotoxicity, FDA (stock solution of 1 mg/ml in DMSO) was added, in 50 µL of complete medium per well, to a final concentration of 10 µg/ml. The plates were incubated for an additional 15-30 minutes at 37 C and then 30 µL of eosin Y (0.5% in normal saline) was added per well. Total fluorescence of each well was then measured using digital imaging microscopy. […]

[5] = system: MOLT-4 ALL leukemia cell line; assay: DIMSCAN cytotoxicity dose-response with fenretinide, with or without D-threo-PPMP (Examples A, FIGS. 6, 24-26); details: +96 hrs; for C.I. of D-threo-PPMP with fenretinide+L-threo-sphinganine (three drug combination): 2% oxygen, D-threo-PPMP fixed 10 uM, at most doses
Protocol: (§4) Cytotoxicity Assay: Cytotoxicity in cell lines was determined using a fluorescence-based assay employing digital imaging microscopy (DIMSCAN)(after Fragala, et al, Mol Cancer Ther, 6:886-897, 2007). DIMSCAN quantitates viable cells which selectively accumulate fluorescein diacetate and is capable of measuring cytotoxicity over a 4-5 log dynamic range by quantifying total fluorescence per well (which is proportional to viable, clonogenic cells) after eliminating background fluorescence using digital thresholding and eosin Y quenching. Briefly, cell lines were seeded into 96-well plates in 100 µL of complete culture medium (10-20% serum) per well. Cells were incubated overnight in 2%, 5% or 20% oxygen (room air) prior to addition of drugs in […] volumes of complete medium to various final drug concentrations in replicates of 12 wells per concentration. In assays employing D-threo-PPMP, PPMP was employed at a fixed, minimally-toxic, final concentration of 10 μM in each well. Control wells received ethanol (final concentration=0.12%-0.20%) in complete medium equivalent to the maximum final ethanol concentration of drug-treated wells. Plates were incubated at various oxygen concentrations to simulate physiological hypoxia (i.e., 2% oxygen=typical solid tumor oxygen levels; 5%=bone marrow oxygen levels for leukemias; 20% room air=supraphysiological oxygen for comparison with typical laboratory culture conditions). Plates were assayed at 3-4 days after initiating drug exposure depending on the growth properties of each cell line, to allow for maximum cell death and outgrowth of surviving cells. To measure cytotoxicity, FDA (stock solution of 1 mg/ml in DMSO) was added, in 50 µL of complete medium per well, to a final concentration of 10 µg/ml. The plates were incubated for an additional 15-30 minutes at 37 C and then 30 µL of eosin Y (0.5% in normal saline) was added per well. Total fluorescence of each well was then measured using digital imaging microscopy.
(§5) FIGS. 1 to 26 illustrate the effect (Examples A1 through A26) of the claimed invention and were carried out using the procedures disclosed herein.

[6] = system: GBM2 glioblastoma brain cancer cell line; assay: DIMSCAN cytotoxicity dose-response with fenretinide, with or without D-threo-PPMP (Examples A, FIGS. 3, 9, 14, 18-20); details: +96 hrs; for C.I. of D-threo-PPMP with fenretinide+L-threo-sphinganine (three drug combination): 2% oxygen, D-threo-PPMP fixed 10 uM, at most doses; for C.I. (Combination Index) with fenretinide: at one or more doses
Protocol: as §4, §5

[7] = system: CHLA-90 pediatric neuroblastoma cell line; assay: DIMSCAN cytotoxicity, fenretinide + L-threo-sphinganines 3:1 (Example B21)
Protocol: as §1, §2
Fenretinide and L-threo-sphinganines tested in human pediatric neuroblastoma (a nerve-related, solid tumor cancer) cell line, CHLA-90.

[8] = 4-HPR 1.5 μM + L-threo-sphinganine 0.5 μM
[9] = 4-HPR 3 μM + L-threo-sphinganine 1 μM
[10] = 4-HPR 6 μM + L-threo-sphinganine 2 μM
[11] = 4-HPR 9 μM + L-threo-sphinganine 3 μM
[12] = 4-HPR 12 μM + L-threo-sphinganine 4 μM

| Structure (SMILES) | CI [1, 8] | Fa [1, 8] | CI [1, 9] | Fa [1, 9] | CI [1, 10] | Fa [1, 10] | CI [1, 11] | Fa [1, 11] | CI (Combination Index) [2, 8] | Fa (fraction affected) [2, 8] | CI (Combination Index) [2, 9] | Fa (fraction affected) [2, 9] | CI (Combination Index) [2, 10] | Fa (fraction affected) [2, 10] | CI (Combination Index) [2, 11] | Fa (fraction affected) [2, 11] | CI (Combination Index) [3, 8] | Fa (fraction affected) [3, 8] | CI (Combination Index) [3, 9] | Fa (fraction affected) [3, 9] | also measured |
| --- | --- | --- | --- | --- | --- | --- | --- | --- | --- | --- | --- | --- | --- | --- | --- | --- | --- | --- | --- | --- | --- |
| CCCCCCCCC[C@H](O)[C@@H](N)CO [C12] | 1.4 | 0.345 | 2.9 | 0.325 | 5.5 | 0.506 | >>1 | 0.632 | 1.5 | 1E−07 | 0.9 | 0.052 | 1.6 | 0.272 | 2.0 | 0.720 | 1.0 | 0.217 | 1.0 | 0.642 | CI (Combination Index) [3, 10]: 0.9; Fa (fraction affected) [3, 10]: 0.951; CI (Combination Index) [3, 11]: 1.2; Fa (fraction affected) [3, 11]: 0.975 |
| CCCCCCCCCCCCCC[C@H](O)[C@@H](N)CO [C17, (2S,3S)-2-amino-1,3-heptadecanediol] | 0.3 | 0.314 | 0.3 | 0.462 | 0.2 | 0.689 | 0.2 | 0.743 | 1.3 | 0.127 | 0.9 | 0.265 | 0.8 | 0.610 | 0.7 | 0.948 | 1.3 | 0.112 | 0.7 | 0.661 | C.I. (Combination Index) with fenretinide [4]: < 1; C.I. of D-threo-PPMP with fenretinide+L-threo-sphinganine (three drug combination) [5]: < 1; C.I. (Combination Index) with fenretinide ([5]; at one or more doses): < 1; CI (Combination Index) [3, 10]: 0.4; Fa (fraction affected) [3, 10]: 0.974; CI (Combination Index) [3, 11]: 0.4; Fa (fraction affected) [3, 11]: 0.993; C.I. of D-threo-PPMP with fenretinide+L-threo-sphinganine (three drug combination) [6]: < 1; C.I. (Combination Index) with fenretinide [6]: < 1; CI [7, 9]: 0.4; Fa [7, 9]: 0.994; CI [7, 10]: 0.4; Fa [7, 10]: 0.999; CI [7, 11]: 0.6; Fa [7, 11]: 0.9997; CI [7, 12]: 0.3; Fa [7, 12]: 1 |
| CCCCCCCCCCCCCCC[C@H](O)[C@@H](N)CO [C18, (2S,3S)-2-amino-1,3-octadecanediol, reference compound] | 0.7 | 0.281 | 0.4 | 0.464 | 0.2 | 0.709 | 0.2 | 0.799 | 1.8 | 0.088 | 1.8 | 0.207 | 1.3 | 0.597 | 0.7 | 0.922 | 1.2 | 0.243 | 0.6 | 0.756 | CI (Combination Index) [3, 10]: 0.9; Fa (fraction affected) [3, 10]: 0.824; CI (Combination Index) [3, 11]: 0.6; Fa (fraction affected) [3, 11]: 0.961; CI [7, 9]: 0.5; Fa [7, 9]: 0.996; CI [7, 10]: 0.3; Fa [7, 10]: 0.9993; CI [7, 11]: 0.4; Fa [7, 11]: 0.9999; Fa [7, 12]: 1 |
| CCCCCCCCCCCCCCCC[C@H](O)[C@@H](N)CO [C19, (2S,3S)-2-amino-1,3-nonadecanediol] | 1.0 | 0.094 | 1.6 | 0.109 | 1.6 | 0.173 | 1.1 | 0.272 | 1.2 | 0.078 | 1.2 | 0.195 | 1.1 | 0.503 | 0.7 | 0.909 | 1.2 | 0.138 | 0.8 | 0.736 | C.I. (Combination Index) with fenretinide [4]: < 1; C.I. of D-threo-PPMP with fenretinide+L-threo-sphinganine (three drug combination) [5]: < 1; CI (Combination Index) [3, 10]: 0.8; Fa (fraction affected) [3, 10]: 0.965; CI (Combination Index) [3, 11]: 0.9; Fa (fraction affected) [3, 11]: 0.991; C.I. of D-threo-PPMP with fenretinide+L-threo-sphinganine (three drug combination) [6]: < 1; C.I. (Combination Index) with fenretinide [6]: < 1; CI [7, 9]: 0.4; Fa [7, 9]: 0.9960; CI [7, 10]: 0.1; Fa [7, 10]: 0.9993; CI [7, 11]: 0.1; Fa [7, 11]: 1; Fa [7, 12]: 1.0000 |
